Measurements published in article PMC4753070 (Bioorganic & medicinal chemistry letters, 2016).
“Also recorded” adds a separate entry of the source.

What was measured:
[1] = test system: histone H3K9 acetylation in mouse forebrain primary neuronal cultures; assay: Neuronal histone acetylation assay, H3K9ac immunofluorescence; assay type: cell-based; details: 1 and 10 μM, 24 hrs, relative to SAHA
[2] = test system: histone H4K12 acetylation in mouse forebrain primary neuronal cultures; assay: Neuronal histone acetylation assay, H4K12ac immunofluorescence; assay type: cell-based; details: 1 and 10 μM, 24 hrs, relative to SAHA
HDAC5 = HDAC5 (Homo sapiens, UniProt Q9UQL6); assay: In vitro HDAC5; assay type: biochemical
[3] = Mouse plasma pharmacokinetics and brain-to-plasma ratio; assay type: in vivo
[4] = test system: recombinant human HDAC1-3; assay: In vitro HDAC1-3 inhibition, potency comparison across the three isoforms; assay type: biochemical
[5] = mouse, intraperitoneal 25 mg/kg; cited from earlier work

HDAC5, sequence (Q9UQL6 whole entry, species assumed): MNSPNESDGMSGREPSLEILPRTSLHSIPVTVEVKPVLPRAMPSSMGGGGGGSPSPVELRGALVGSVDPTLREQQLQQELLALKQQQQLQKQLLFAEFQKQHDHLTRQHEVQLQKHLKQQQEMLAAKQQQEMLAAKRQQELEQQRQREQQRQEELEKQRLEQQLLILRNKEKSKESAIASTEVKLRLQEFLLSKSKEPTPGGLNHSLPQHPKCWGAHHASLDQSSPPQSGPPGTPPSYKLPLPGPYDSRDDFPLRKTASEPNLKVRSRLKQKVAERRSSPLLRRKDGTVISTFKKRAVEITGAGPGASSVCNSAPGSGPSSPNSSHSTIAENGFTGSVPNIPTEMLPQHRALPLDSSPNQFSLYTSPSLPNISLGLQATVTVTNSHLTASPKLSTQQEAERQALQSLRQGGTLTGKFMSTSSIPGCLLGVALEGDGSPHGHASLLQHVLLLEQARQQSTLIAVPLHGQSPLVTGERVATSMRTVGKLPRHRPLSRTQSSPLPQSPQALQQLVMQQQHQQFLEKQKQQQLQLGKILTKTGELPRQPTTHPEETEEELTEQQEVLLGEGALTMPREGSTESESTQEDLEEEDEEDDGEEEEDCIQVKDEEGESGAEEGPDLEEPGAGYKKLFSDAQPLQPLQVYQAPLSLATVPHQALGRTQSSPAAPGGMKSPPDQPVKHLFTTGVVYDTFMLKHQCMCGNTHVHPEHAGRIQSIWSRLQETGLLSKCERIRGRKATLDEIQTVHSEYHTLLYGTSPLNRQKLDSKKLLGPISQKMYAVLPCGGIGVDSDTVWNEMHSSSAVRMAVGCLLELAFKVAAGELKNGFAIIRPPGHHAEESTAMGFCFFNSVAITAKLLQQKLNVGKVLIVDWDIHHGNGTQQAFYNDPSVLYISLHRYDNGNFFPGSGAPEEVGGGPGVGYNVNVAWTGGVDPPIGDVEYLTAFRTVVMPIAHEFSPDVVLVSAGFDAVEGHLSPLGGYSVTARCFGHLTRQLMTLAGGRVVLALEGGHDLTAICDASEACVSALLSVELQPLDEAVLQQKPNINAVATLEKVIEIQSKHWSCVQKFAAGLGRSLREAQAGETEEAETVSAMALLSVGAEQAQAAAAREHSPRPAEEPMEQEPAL

SMILES	induction of histone H3K9 acetylation (H3K9ac) [1]	induction of histone H4K12 acetylation (H4K12ac) [2]	other results
NNC(=O)CCCCCCC(=O)NO [Compound 7]	No induction	No induction	
O=C(CCCCCC(=O)N/N=C/c1ccc(-c2cccnc2)cc1)NO [Compound 9f, neurinostat]	most potent	most potent	activity toward HDAC5 (HDAC5): no activity; plasma maximum concentration ([3]; intraperitoneal 25 mg/kg, peripheral blood): 1.9 µM; brain-to-plasma ratios relative to those measured for crebinostat (9b) ([3]; time points 0.5, 1 and 2 hours): about twice
O=C(CCCCCC(=O)N/N=C/c1ccc(-c2ccccc2)cc1)NO [Compound 9b, crebinostat]	greater increases; also recorded: more effective	greater increases; also recorded: more effective	fold reduction in IC50 versus SAHA ([4]; HDAC1, 2 or 3): > 5 fold; activity toward HDAC5 (HDAC5): no activity; brain Cmax [5]: 60 nM
COc1ccc(Br)c(/C=N/NC(=O)CCCCCC(=O)NO)c1 [Compound 9j]	more effective	more effective	
O=C(CCCCC(=O)N/N=C/c1ccc(-c2ccccc2)cc1)NO [Compound 9a]			fold increase in IC50's over those of crebinostat (9b) ([4]; HDAC1, 2 or 3): approximately 20 fold
NNC(=O)CCCCCC(=O)NO [Compound 3b]	No induction	No induction	
O=C(CCCCCCC(=O)N/N=C/c1ccc(-c2ccccc2)cc1)NO [Compound 9c]	greater increases	greater increases	fold improved potency for inhibiting HDAC1-3 versus crebinostat (9b) ([4]; HDAC1-3, biochemical reaction): ~ 2 fold
COc1cc(O)cc(OC)c1/C=N/NC(=O)CCCCCC(=O)NO [Compound 9k]	least potent	least potent	
NNC(=O)CCCCC(=O)NO [Compound 3a]	No induction	No induction	
